Measurements reported in patent US20240262842A1, “SMALL MOLECULE INHIBITORS OF KRAS G12C MUTANT” (Merck Sharp & Dohme LLC, priority 2021, published 2024).
Like-named read-outs stand apart in the source and are kept apart here.

Assays:
[1] = tested on: MIA PaCa-2 cells; test: Growth inhibition activity on KRAS-G12C mutant cell line (CellTiter-Glo 3D); format: cell-based, human; conditions: MIA PaCa-2, 3-day culture with compound
Outline: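 IC50 (nM) derived from inhibition of luminescence (CellTiter-Glo 3D) relative to compound-free wells. Cells were seeded in U-bottom plates, grown 1 day, then exposed to compound for 3 days at 37 °C with 0.2% final DMSO.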

[2] = biological target: T1, interaction between GMPPNP-bound recombinant K-Ras4B G12C mutant protein and cRAF RAS-binding domain (cRAF-RBD) (Homo sapiens, UniProt P01116, G12C); test: Inhibitory activity on interaction between KRAS G12C and cRAF (Alpha technology)
T1 construct: His-tag (N)
Outline: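 Alpha signal measured 1.5 h after adding cRAF-RBD (aa 50-132) and detection reagents to GMPPNP-bound KRAS G12C (aa 1-169) pretreated 1 h at 25° C with compound (pH 7.5 buffer). 0% inhibition = DMSO, 100% = GDP-loaded KRAS; IC50 by curve fit.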

[3] = Homo sapiens, MIA PaCa-2, 72 h, Table 3-1
[4] = GMPPNP-bound KRAS G12C incubated with compound 25° C. 1 hour, Table 2-1, read-out: IC50
[5] = IC50, GMPPNP-bound KRAS G12C incubated with compound 25° C. 1 hour, Table 2
[6] = IC50, GMPPNP-bound KRAS G12C incubated with compound 25° C. 1 hour, Table 2-1
[7] = Homo sapiens, MIA PaCa-2, 72 h, Table 3
[8] = GMPPNP-bound KRAS G12C incubated with compound 25° C. 1 hour, Table 2, read-out: IC50

Work on `CO[C@H]1CC[C@H](NC/C=C/C(=O)Nc2ccc(C(=O)c3cc4c5c(cccn35)-c3c(C(F)(F)F)cc5c(nc(C)n5C)c3OCC4)cc2F)CC1` [Example 67, (E)-N-(4-(9,10-dimethyl-7-(trifluoromethyl)-13,14-dihydro-9H-imidazo-[4″,5″:5′,6′]benzo[1′,2′: 2,3]oxocino[4,5,6-hi]-indolizine-2-carbonyl)-2-fluorophenyl)-4-(((1r,4r)-4-methoxycyclohexyl)-amino)but-2-enamide] yielded an IC50 [1, 3] of 8.22 nM and an IC50 [2, 4] of 22 nM.

Compound `CO[C@H]1CC[C@H](NC/C=C/C(=O)Nc2c(F)cc(C(=O)c3cn4c5c(cccc35)-c3c(C)cc5c(nc(C)n5C)c3OCC3(CC3)C4)cc2F)CC1` (single isomer, unassigned) [Example 21-2, (E)-N-(2,6-difluoro-4-(6′,8′,9′-trimethyl-8′H, 12′H,14′H-spiro[cyclopropane-1,13-imidazo[4″,5″:3′,4′]benzo[1′,2:8,9][1,5]oxazonino[7,6,5-hi]indole]-2′-carbonyl)phenyl)-4-(((1r,4t)-4-methoxycyclohexyl)amino)but-2-enamide] has an IC50 ([1]; Table 3) of 1500 nM and an IC50 [2, 5] of 2800 nM.

With `Cc1cc2c(nc(C)n2C)c2c1-c1cccc3c(C(=O)c4cc(F)c(NC(=O)/C=C/CN5CC[C@H]5C(C)(C)O)c(F)c4)cn(c13)CCN2C` [Example 139, (S,E)-N-(2,6-difluoro-4-(6,8,9,11-tetramethyl-8,11,12,13-tetrahydro-imidazo[4″,5″:5′,6′]benzo-[1′,2′:5,6][1,4]diazocino-[7,8,1-hi]indole-2-carbon-yl)phenyl)-4-(2-(2-hydroxypropan-2-yl)-azetidin-1-yl)but-2-en-amide] the IC50 [1, 3] was 57.9 nM and the IC50 [2, 6] was 59 nM.

`CO[C@H]1CC[C@H](NC/C=C/C(=O)Nc2c(F)cc(C(=O)c3cc4c5c(cccn35)-c3c(C(F)(F)F)cc5c(nc(C)n5C)c3OC(C)C4)cc2F)CC1` (stereo partly shown) [Example 42, (E)-N-(2,6-difluoro-4-(9,10,13-trimethyl-7-(trifluoromethyl)-13,14-dihydro-9H-imidazo[4″,5″:5′,6′]benzo[1′,2′:2,3]oxocino[4,5,6-hi]indolizine-2-carbonyl)phenyl)-4-(((1r,4r)-4-methoxycyclohexyl)amino)but-2-enamide] was tested, and the IC50 [1, 7] was 9 nM and the IC50 [2, 8] was 18 nM.

For `CO[C@H]1CC[C@H](NC/C=C/C(=O)Nc2c(F)cc(C(=O)c3cn4c5c(cccc35)-c3c(C)cc5c(nc(C)n5C)c3CCC4)cc2F)CC1` [Example 27, (E)-N-(2,6-difluoro-4-(6,8,9-trimethyl-8,11,12,13-tetrahydroimidazo[4″,5″:3′,4′]benzo[1′,2′:4,5]azocino[3,2,1-hi]indole-2-carbonyl)phenyl)-4-(((1r,4r)-4-methoxycyclohexyl)amino)but-2-enamide], the IC50 [1, 7] was 88 nM and the IC50 [2, 5] was 64 nM.

Work on `CN1CCc2cc(C(=O)c3cc(F)c(NC(=O)/C=C/CNC4(C)COC4)c(F)c3)n3cccc(c23)-c2c(C(F)(F)F)cc3[nH]cnc3c21` (single isomer, unassigned) [Example 179, (E)-N-(2,6-difluoro-4-(12-methyl-7-(trifluorometh-yl)-9,12,13,14-tetrahydro-imidazo[4″,5″:5′,6′]benzo-[1′,2′:2,3]azocino[4,5,6-hi]indolizine-2-carbonyl)-phenyl)-4-((3-methyloxe-tan-3-yl)amino)but-2-enamide] yielded an IC50 [1, 3] of 139 nM and an IC50 [2, 4] of 41.6 nM.

In the case of `Cc1cc2c(nc(C)n2C)c2c1-c1cccn3c(C(=O)c4cc(F)c(NC(=O)/C=C/CNC5(C)CCOCC5)c(F)c4)cc(c13)CCN2C` [Example 57, (E)-N-(2,6-difluoro-4-(7,9,10,12-tetramethyl-9,12,13,14-tetrahydro-imidazo[4″,5″:5′,6′]benzo-[1′,2′:2,3]azocino[4,5,6-hi]indolizine-2-carbonyl)-phenyl)-4-((4-methyltetra-hydro-2H-pyran-4-yl)-amino)but-2-enamide], the IC50 [1, 3] is reported as 68.5 nM and the IC50 [2, 4] is reported as 78.3 nM.

For `COCC1(NC/C=C/C(=O)Nc2c(F)cc(C(=O)c3cc4c5c(cccn35)-c3c(C(F)(F)F)cc5c(ncn5C)c3N(C)CC4)cc2F)CCCC1` [Example 127, (E)-N-(4-(9,12-dimethyl-7-(trifluoromethyl)-9,12,13,14-tetrahydro-imidazo[4″,5″:5′,6′]benzo-[1′,2′:2,3]azocino[4,5,6-hi]indolizine-2-carbonyl)-2,6-difluorophenyl)-4-((1-(methoxymethyl)cyclo-pentyl)amino)but-2-en-amide], the IC50 [1, 3] was 22.5 nM and the IC50 [2, 4] was 16.8 nM.

In the case of `CO[C@H]1CC[C@H](NC/C=C/C(=O)Nc2c(F)cc(C(=O)c3cn4c5c(cccc35)-c3c(C)cc5c(nc(C)n5C)c3N(C)CC4)cc2F)CC1` [Example 44], the IC50 [1, 7] is reported as 10 nM and the IC50 [2, 5] is reported as 30 nM.

`CO[C@H]1CC[C@H](NC/C=C/C(=O)Nc2c(F)cc(C(=O)c3cn4c5c(cccc35)-c3c(F)cccc3OCC4)cc2F)CC1` [Example 7] gave an IC50 [1, 7] of 1100 nM and an IC50 [2, 5] of 840 nM.

In the case of `Cc1nc2c3c(c(C(F)(F)F)cc2n1C)-c1cccn2c(C(=O)c4cc(F)c(NC(=O)/C=C/CNC5COC5)c(F)c4)cc(c12)CCO3` [Example 51, (E)-N-(4-(9,10-dimethyl-7-(trifluoromethyl)-13,14-dihydro-9H-imidazo-[4″,5″:5′,6′]benzo[1′,2′: 2,3]oxocino[4,5,6-hi]-indolizine-2-carbonyl)-2,6-difluorophenyl)-4-(oxetan-3-ylamino)but-2-enamide], the IC50 [1, 3] is reported as 15.9 nM and the IC50 [2, 4] is reported as 45.4 nM.

Compound `CO[C@H]1CC[C@H](NC/C=C/C(=O)Nc2c(F)cc(C(=O)c3cc4c5c(cccn35)-c3c(C(F)(F)F)cc5c(nc(C)n5C)c3OC(C)C4)cc2F)CC1` (single isomer, unassigned) [Example 42-1, (E)-N-(2,6-difluoro-4-(9,10,13-trimethyl-7-(trifluoromethyl)-13,14-dihydro-9H-imidazo[4″,5″:5′,6′]benzo[1′,2′:2,3]oxocino[4,5,6-hi]indolizine-2-carbonyl)phenyl)-4-(((1r,4r)-4-methoxycyclohexyl)amino)but-2-enamide] has an IC50 ([1]; Table 3) of 6 nM and an IC50 [2, 8] of 11 nM.

For “(E)-N-(2,6-difluoro-4-((S)-6,8,9,12-tetramethyl-12,13-dihydro-8H-imidazo[4″,5″:3′,4′]benzo[1′,2′:7,8][1,4]oxazocino[6,5,4-hi]indole-2-carbonyl)pheny 1)-4-(((1,4r)-4-methoxycyclohexyl)amino)but-2-enamide [Example 20]”, the IC50 ([1]; Table 3) was 49 nM and the IC50 [2, 8] was 24 nM.

`CC1(NC/C=C/C(=O)Nc2c(F)cc(C(=O)c3cc4c5c(cccn35)-c3c(cc(N5CCNC5=O)cc3C(F)(F)F)OCC4)cc2F)CC1` [Example 233, (E)-N-(2,6-difluoro-4-(7-(2-oxoimidazolidin-1-yl)-9-(trifluoromethyl)-3,4-dihydrobenzo[2,3]oxo-cino[4,5,6-hi]indolizine-1-carbonyl)phenyl)-4-((1-methylcyclopropyl)-amino)but-2-enamide] gave an IC50 [1, 3] of 14 nM and an IC50 [2, 4] of 52.6 nM.

`Cn1cnc2c3c(c(C(F)(F)F)cc21)-c1cccn2c(C(=O)c4cc(F)c(NC(=O)/C=C/CN5CC6CCC5CO6)c(F)c4)cc(c12)CCO3` (stereo not shown) [Example 220, (E)-4-(2-oxa-5-aza-bicyclo[2.2.2]octan-5-yl)-N-(2,6-difluoro-4-(9-methyl-7-(trifluorometh-yl)-13,14-dihydro-9H-imidazo[4″,5″:5′,6′]benzo-[1′,2′:2,3]oxocino[4,5,6-hi]indolizine-2-carbonyl)-phenyl)but-2-enamide] showed an IC50 [1, 3] of 6.52 nM and an IC50 [2, 4] of 24.4 nM.

Compound `Cc1nc2c3c(c(C(F)(F)F)cc2n1C)-c1cccn2c(C(=O)c4ccc(NC(=O)/C=C/CNC5(C)COC5)c(F)c4)cc(c12)CCO3` [Example 68, (E)-N-(4-(9,10-dimethyl-7-(trifluoromethyl)-13,14-dihydro-9H-imidazo-[4″,5″:5′,6′]benzo[1′,2′: 2,3]oxocino[4,5,6-hi]-indolizine-2-carbonyl)-2-fluorophenyl)-4-((3-meth-yloxetan-3-yl)amino)but-2-enamide] has an IC50 [1, 3] of 16.4 nM and an IC50 [2, 4] of 91.2 nM.

In the case of `CO[C@H]1CC[C@H](NC/C=C/C(=O)Nc2c(F)cc(C(=O)c3cc4c5c(cccn35)-c3c(C(F)(F)F)cc5c(nc(C)n5C)c3OC(C)C4)cc2F)CC1` (single isomer, unassigned) [Example 42-2, (E)-N-(2,6-difluoro-4-(9,10,13-trimethyl-7-(trifluoromethyl)-13,14-dihydro-9H-imidazo[4″,5″:5′,6′]benzo[1′,2′:2,3]oxocino[4,5,6-hi]indolizine-2-carbonyl)phenyl)-4-(((1r,4r)-4-methoxycyclohexyl)amino)but-2-enamide], the IC50 ([1]; Table 3) is reported as 450 nM and the IC50 [2, 8] is reported as 1100 nM.

`Cc1cc2c(ncn2C)c2c1-c1cccn3c(C(=O)c4cc(F)c(NC(=O)/C=C/CNC5(C)CCOCC5)c(F)c4)cc(c13)CCN2C` [Example 116] was tested, and the IC50 [1, 3] was 29.9 nM and the IC50 [2, 4] was 26.6 nM.

Work on `Cc1nc2c3c(c(C(F)(F)F)cc2n1C)-c1cccc2c(C(=O)c4cc(F)c(NC(=O)/C=C/CNC5(C)COC5)c(F)c4)cn(c12)CCO3` [Example 91] yielded an IC50 [1, 3] of 8.68 nM and an IC50 [2, 6] of 27.2 nM.

`CC(O)[C@]1(C)CCCN1C/C=C/C(=O)Nc1c(F)cc(C(=O)c2cc3c4c(cccn24)-c2c(C(F)(F)F)cc4c(ncn4C)c2N(C)CC3)cc1F` (single isomer, unassigned) [Example 204] gave an IC50 ([1]; Table 3-1) of 118 nM and an IC50 [2, 4] of 36.4 nM.
